Measured values as given in patent US9113629B2, “4-amino-6-(4-substituted-phenyl)-picolinates and 6-amino-2-(4-substituted-phenyl)-pyrimidine-4-carboxylates and their use as herbicides” (DOW AGROSCIENCES LLC, priority 2013, dated 2015).

Assays:
[1] = test system: SETVI: green foxtail (Setaria viridis); test: Post-emergent Test III, herbicidal activity in wheat and barley; assay type: in vivo; conditions: Table 9, 21 d; for pest or weed control at 35 g/ha: 35 g ai/ha; for pest or weed control at 70 g/ha: 70 g ai/ha; for GR50 SETVI: dose for 50 percent growth reduction; for GR50 SETVI / GR80 SETVI: probit analysis; for GR80 SETVI: dose for 80 percent growth reduction
Procedure, shortened: (§1)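 GR20, GR50, GR80 and GR90 come from probit analysis of visual injury scores (0 = none, 100 = complete kill) taken 21 d after treatment. Foliar application was by track sprayer delivering 187 L/ha at five rates, from high down to 1/16×, onto greenhouse plants at the 2–3 leaf stage, with solvent-blank controls.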

[2] = test system: LOLSS: ryegrass including, Italian ryegrass (Lolium multiflorum), rigid ryegrass (Lolium rigidum), annual ryegrass (Lolium multiflorum subsp. Gaudini); test: as above; assay type: in vivo; conditions: Table 9, probit analysis, 21 d; for GR50 LOLSS: dose for 50 percent growth reduction; for GR80 LOLSS: dose for 80 percent growth reduction
Procedure, shortened: as §1

[3] = test system: KCHSC: kochia (Kochia scoparia); test: as above; assay type: in vivo; conditions: Table 9, 21 d; for pest or weed control at 35 g/ha: 35 g ai/ha; for pest or weed control at 70 g/ha: 70 g ai/ha; for GR50 KCHSC: dose for 50 percent growth reduction; for GR50 KCHSC / GR80 KCHSC: probit analysis; for GR80 KCHSC: dose for 80 percent growth reduction
Procedure, shortened: as §1

[4] = test system: APESV: bentgrass (Apera spica-venti); test: as above; assay type: in vivo; conditions: Table 9, 21 d; for pest or weed control at 35 g/ha: 35 g ai/ha; for pest or weed control at 70 g/ha: 70 g ai/ha; for GR50 APESV: dose for 50 percent growth reduction; for GR50 APESV / GR80 APESV: probit analysis; for GR80 APESV: dose for 80 percent growth reduction
Procedure, shortened: as §1

[5] = test system: TRZSS: wheat, including spring and winter (Triticum aestivum); test: as above; assay type: in vivo; conditions: Table 9, 21 d; for GR20 TRZSS: dose for 20 percent growth reduction, probit analysis; for pest or weed control at 35 g/ha: 35 g ai/ha; for pest or weed control at 70 g/ha: 70 g ai/ha
Procedure, shortened: as §1

[6] = test system: HORSS: barley, including spring and winter (Hordeum vulgare); test: as above; assay type: in vivo; conditions: Table 9, 21 d; for pest or weed control at 35 g/ha: 35 g ai/ha; for pest or weed control at 70 g/ha: 70 g ai/ha; for GR20 HORSS: dose for 20 percent growth reduction, probit analysis
Procedure, shortened: as §1

[7] = as above; assay type: in vivo, Lolium multiflorum, Lolium rigidum; conditions: Lolium multiflorum, post-emergence, 504 h, Table 9, post-emergent, 21 d, read-out: Visual Growth Reduction (%) 21 Days After Application LOLSS; for pest or weed control at 35 g/ha: 35 g ai/ha; for pest or weed control at 70 g/ha: 70 g ai/ha
Procedure, shortened: as §1

[8] = Setaria viridis, post-emergence, 504 h, post-emergent, read-out: Visual Growth Reduction (%) 21 Days After Application SETVI
[9] = Bassia scoparia, post-emergence, 504 h, post-emergent, read-out: Visual Growth Reduction (%) 21 Days After Application KCHSC
[10] = Apera spica-venti, post-emergence, 504 h, post-emergent, read-out: Visual Growth Reduction (%) 21 Days After Application APESV
[11] = Triticum aestivum, post-emergence, 504 h, post-emergent, read-out: Visual Growth Reduction (%) 21 Days After Application TRZSS
[12] = Hordeum vulgare, post-emergence, 504 h, post-emergent, read-out: Visual Growth Reduction (%) 21 Days After Application HORSS

Row | Compound | pest or weed control at 35 g/ha [1, 8] [%] | pest or weed control at 70 g/ha [1, 8] [%] | GR50 SETVI [1] [g ai/ha] | GR80 SETVI [1] [g ai/ha] | GR50 LOLSS [2] [g ai/ha] | GR80 LOLSS [2] [g ai/ha] | pest or weed control at 35 g/ha [3, 9] [%] | pest or weed control at 70 g/ha [3, 9] [%] | GR50 KCHSC [3] [g ai/ha] | GR80 KCHSC [3] [g ai/ha] | pest or weed control at 35 g/ha [4, 10] [%] | pest or weed control at 70 g/ha [4, 10] [%] | GR50 APESV [4] [g ai/ha] | GR80 APESV [4] [g ai/ha] | GR20 TRZSS [5] [g ai/ha] | pest or weed control at 35 g/ha [5, 11] [%] | pest or weed control at 70 g/ha [5, 11] [%] | pest or weed control at 35 g/ha [6, 12] [%] | pest or weed control at 70 g/ha [6, 12] [%] | GR20 HORSS [6] [g ai/ha] | further results
1 | Nc1c(Cl)c(C(=O)O)nc(-c2ccc(Br)cc2)c1Cl [Compound 125] | 85 to 94 | 85 to 94 | 2 | 16 | >140 | >140 | 60 to 74 | 85 to 94 | 8 | 34 | 75 to 84 | 85 to 94 | 10 | 41 | 1 | 75 to 84 | 75 to 84 | 85 to 94 | 95 to 100 | 1 | pest or weed control at 140 g/ha ([1]; Setaria viridis, post-emergence, 504 h, 140 g ai/ha, post-emergent, read-out: Visual Growth Reduction (%) 21 Days After Application SETVI): 85 to 94%; pest or weed control at 140 g/ha ([3]; Bassia scoparia, post-emergence, 504 h, 140 g ai/ha, post-emergent, read-out: Visual Growth Reduction (%) 21 Days After Application KCHSC): 95 to 100%; pest or weed control at 140 g/ha ([4]; Apera spica-venti, post-emergence, 504 h, 140 g ai/ha, post-emergent, read-out: Visual Growth Reduction (%) 21 Days After Application APESV): 95 to 100%; pest or weed control at 140 g/ha ([5]; Triticum aestivum, post-emergence, 504 h, 140 g ai/ha, post-emergent, read-out: Visual Growth Reduction (%) 21 Days After Application TRZSS): 85 to 94%; pest or weed control at 140 g/ha ([6]; Hordeum vulgare, post-emergence, 504 h, 140 g ai/ha, post-emergent, read-out: Visual Growth Reduction (%) 21 Days After Application HORSS): 95 to 100%; pest or weed control at 35 g/ha [7]: 0 to 29%; pest or weed control at 70 g/ha [7]: 0 to 29%; pest or weed control at 140 g/ha ([7]; 140 g ai/ha): 45 to 59%
2 | COC(=O)c1nc(-c2cc(F)c(Br)cc2F)c(F)c(N)c1Cl [Compound 51, methyl 4-amino-6-(4-bromo-2,5-difluorophenyl)-3-chloro-5-fluoropicolinate] | 75 to 84 | 85 to 94 | 24 | 49 | 3 | 61 | 85 to 94 | 95 to 100 | 4 | 14 | 85 to 94 | 95 to 100 | 3 | 11 | 1 | 85 to 94 | 95 to 100 | 85 to 94 | 95 to 100 | 1 | pest or weed control at 35 g/ha [7]: 75 to 84%; pest or weed control at 70 g/ha [7]: 75 to 84%
3 | COC(=O)c1nc(-c2cc(F)c(I)cc2F)c(F)c(N)c1Cl [Compound 55, methyl 4-amino-3-chloro-6-(2,5-difluoro-4-iodophenyl)-5-fluoropicolinate] | 75 to 84 | 85 to 94 | 29 | 46 | 21 | 50 | 85 to 94 | 85 to 94 | 4 | 21 | 75 to 84 | 95 to 100 | 4 | 18 | 1 | 85 to 94 | 95 to 100 | 85 to 94 | 95 to 100 | 1 | pest or weed control at 35 g/ha [7]: 60 to 74%; pest or weed control at 70 g/ha [7]: 75 to 84%
4 | Cc1c(-c2ccc(C(F)(F)F)c(F)c2)nc(C(=O)O)c(Cl)c1N [Compound 161, 4-amino-3-chloro-6-(3-fluoro-4-(trifluoromethyl)phenyl)-5-methylpicolinic acid] | 30 to 44 | 60 to 74 | 53 | 128 | 38 | 82 | 0 to 29 | 0 to 29 | >140 | >140 | 60 to 74 | 75 to 84 | 30 | 57 | 1 | 75 to 84 | 75 to 84 | 85 to 94 | 85 to 94 | 1 | pest or weed control at 35 g/ha [7]: 0 to 29%; pest or weed control at 70 g/ha [7]: 0 to 29%
5 | Nc1c(Cl)c(C(=O)O)nc(-c2ccc(I)cc2)c1Cl [Compound 173] | 30 to 44 | 45 to 59 | 54 | 104 | 119 | >140 | 30 to 44 | 45 to 59 | 60 | 131 | 60 to 74 | 75 to 84 | 27 | 59 | 1 | 75 to 84 | 85 to 94 | 85 to 94 | 95 to 100 | 1 | pest or weed control at 35 g/ha [7]: 30 to 44%; pest or weed control at 70 g/ha [7]: 45 to 59%
